Here are results for 23 molecules from patent US20060094649A1, “Hla-a1,-a2,-a3,-a24,-b7, and-b44 tumor associated antigen peptides and compositions” (priority 2002, published 2006).

“Also recorded” adds a separate entry of the source. Read-outs that look alike come from different tables or passages of the source. No end group written: not given here.

Data set [1] relates to wildtype peptide-pulsed target cells. Description: CTL recognition of wildtype peptide-pulsed targets. The format is cell-based, human. The settings on record: for pulsed EHM target cell line: positive responses/total tested, positive = 10% specific lysis above background or twice background and at least 50 pg IFNg/well in at least one of 48 wells.
In data set [2] the target is HLA-A*0101 (Homo sapiens, UniProt P04439, A114D/A174V/A182V/D101N/D185E/E176A/E190D/L180R/Q94H/R68K/S129P/T187R/V100A/V91M/W191G). In words: Class I peptide-binding assay, HLA-A*0101.
In data set [3] the test system is tumor cell lines expressing the TAA. In words: CTL recognition of endogenous targets (tumor cell lines expressing the TAA). The format is cell-based, human. The settings on record: for Tumor target cell line: only wells positive for peptide-pulsed targets.
Procedure: As described herein, T cell cultures testing positive for recognition of peptide-pulsed targets were expanded and evaluated for their ability to recognize human tumor cells that endogenously express the TAA. The chromium-release and IFNγ production assays were used for these evaluations, with tumor cell lines serving as the targets.
Cytotoxicity was determined in a standard ^51Cr release assay by assaying individual wells at a single E:T ratio. Peptide-pulsed targets were prepared by incubating the cells with 10 μg/ml peptide overnight at 37° C. Adherent target cells were removed from culture flasks with typsin-EDTA. […] Target cells (100 μl) and 100 μl of effectors were plated in 96 well round-bottom plates and incubated for 5 hours at 37° C. […] Maximum and spontaneous release was determined by incubating the labeled targets with 1% Triton X-100 and medium alone, respectively.
In brief, Costar EIA plates were coated with mouse anti-human IFNγ monoclonal antibody (Pharmingen) overnight at 4° C. The plates were washed and blocked for 2 hours, after which the CTLs (100 μl/well) and targets (100 μl/well) were added to each well, leaving empty wells for the standards and blanks (which received medium only). […] All wells were brought to 2001 μl with medium and incubated for 48 hours at 37° C. with 5% CO2.
Human rIFNγ (R&D Systems) was added to the standard wells starting at 400 pg/100 ul/well and the plate incubated for 2 hours at 37° C. The plates were washed and 100 μl biotinylated mouse anti-human IFNγ monoclonal antibody (Pharmingen) were added to each well and the plates incubated for 2 hours at room temp. After washing again, 100 μl/well HRP-streptavidin (Zymed) were added and incubated for 1 hour at room temp. […] The reaction was stopped with 50 μl/well 1 M H3PO4 and read at OD450. A culture was considered positive if it measured at least 50 pg of IFNγ/well above background and was at least twice the background level of expression.
For data set [4] the following is noted: co-emulsified with HPV-derived CTL epitopes; cited from earlier work.
Data set [5] deals with peptide-pulsed target cells. The settings on record: outside investigators; cited from earlier work.
Data set [6] has as its target HLA-A*0301 (Homo sapiens, UniProt P04439). In words: Class I peptide-binding assay, HLA-A*0301. The settings on record: Table 16d, p53-derived.
Data set [7] has as its target HLA-A*1101 (Homo sapiens, UniProt P04439, A114D/D185E/E176A/F33Y/L180Q/S129P/T187R). In words: Class I peptide-binding assay, HLA-A*1101. The settings on record: Table 16d, p53-derived.
[8] abbreviates: Table 16c, second part, positive/total tested.
The mark [9] stands for this setting: Table 18a, CEA-derived A1 binders.
Setting [10] is: SW403 (A3+, p53−) and SW403/p53 transfectant (A3+, p53+).
The mark [11] stands for this setting: Table 16d, second part, positive/total tested.
[12] abbreviates: 938mel (A3−, Mage2+, Mage3+) and 624mel (A3+, Mage2+, Mage3+).

As for `CC[C@H](C)[C@H](NC(=O)[C@@H](NC(=O)[C@@H](NC(=O)[C@H](CO)NC(=O)[C@@H](N)Cc1ccccc1)[C@@H](C)O)[C@@H](C)O)C(=O)N[C@@H](CC(N)=O)C(=O)N[C@@H](Cc1ccc(O)cc1)C(=O)N[C@H](C(=O)N[C@@H](CC(C)C)C(=O)N[C@@H](Cc1c[nH]c2ccccc12)C(=O)N[C@@H](CCCNC(=N)N)C(=O)O)[C@@H](C)O` [compound 80], the “Immunogenicity Wildtype” value in data set [1] (setting [8]) was 0/2. On to `CC[C@H](C)[C@H](NC(=O)[C@@H](N)[C@@H](C)O)C(=O)N[C@@H](CO)C(=O)N1CCC[C@H]1C(=O)N[C@@H](CC(C)C)C(=O)N[C@@H](CC(N)=O)C(=O)N[C@H](C(=O)N[C@@H](CO)C(=O)N[C@@H](Cc1ccc(O)cc1)C(=O)N[C@@H](CCCCN)C(=O)O)[C@@H](C)O`, for which the “Immunogenicity Wildtype” value in data set [1] (Table 20) is given as 2/3.

What is called IC50 is the concentration that inhibits the measured activity by half. Regarding H-LTQEFVQENY-OH, the IC50 in data set [2] (Table 18c, Mage2/3-derived A1 binders) turned out to be 96 nM.

In data set [2] (setting [9]), H-ITEKNSCLY-OH came in with a 50% inhibitory concentration (IC50) of 641 nM. Still for that read-out and setting: for H-LTDNNSGSY-OH the value was 96 nM.

On to `CC[C@H](NC(=O)[C@H](CCCNC(=N)N)NC(=O)[C@H](CCCNC(=N)N)NC(=O)[C@@H](NC(=O)[C@@H](N)C(C)C)C(C)C)C(=O)N1CCC[C@H]1C(=O)N[C@@H](Cc1c[nH]cn1)C(=O)N[C@@H](Cc1c[nH]cn1)C(=O)N[C@@H](CCC(=O)O)C(=O)N[C@@H](CCCCN)C(=O)O` [VVRRBPHHEK], for which the “Immunogenicity Tumor” value in data set [3] (Table 20) is listed as 1/2. Also, the “Immunogenicity Wildtype” value in data set [1] (Table 20) is listed as 1/2.

Turning to `CC(C)[C@H](NC(=O)[C@@H](N)CCCNC(=N)N)C(=O)N[C@@H](CS)C(=O)N[C@@H](C)C(=O)N[C@@H](CS)C(=O)N1CCC[C@H]1C(=O)NCC(=O)N[C@@H](CCCNC(=N)N)C(=O)O` [compound 124], the “pulsed EHM target cell line” value in data set [1] is recorded as 0/1. Take “aKXVAAWTLKAAa-NH2 [PADRE®, a=D-alanine, X=cyclohexylalanine]”: the “safety in the trial (in words)” value in data set [4] was “favorable safety profile”. Regarding “MAGE3.196 9-mer: MAGE3-derived B7 motif wildtype 9-mer”, the “CTL induction / antigenicity reported in the literature (in words)” value in data set [5] is “antigenicity”.

As for SSCMGGMNR [compound 117], the results for the half-inhibitory concentration (IC50) in data set [6] and in data set [7] were 550 nM and 4.3 nM, respectively. For H-HSDSNFSPQY-OH, in data set [2] (setting [9]), the IC50 stood at 45 nM. As for `CSCC[C@H](NC(=O)[C@H](CC(C)C)NC(=O)[C@H](CCCCN)NC(=O)[C@H](CCCCN)NC(=O)[C@H](Cc1c[nH]cn1)NC(=O)[C@H](CCCNC(=N)N)NC(=O)[C@H](CO)NC(=O)[C@@H](NC(=O)[C@@H](N)CO)[C@@H](C)O)C(=O)N[C@@H](Cc1ccccc1)C(=O)N[C@@H](CCCCN)C(=O)O` [compound 126], the “pulsed EHM target cell line” value in data set [1] is recorded as 1/2. `C[C@@H](O)[C@H](NC(=O)[C@@H](N)CCCCN)C(=O)N[C@@H](Cc1ccc(O)cc1)C(=O)N[C@@H](CCC(N)=O)C(=O)NCC(=O)N[C@@H](CO)C(=O)N[C@@H](Cc1ccc(O)cc1)C(=O)NCC(=O)N[C@@H](Cc1ccccc1)C(=O)N[C@@H](CCCCN)C(=O)O` [compound 104]: the “Tumor target cell line” value in data set [3] (setting [10]) is 0/1. Besides, the “Immunogenicity Tumor” value in data set [3] (setting [11]) is 0/1. Besides, in data set [1] (setting [11]), the “Immunogenicity Wildtype” value is on record as 0/1. Further, the “pulsed EHM target cell line” value in data set [1] is 0/1. As for `CC(C)C[C@H](NC(=O)[C@H](CC(C)C)NC(=O)[C@H](CC(C)C)NC(=O)[C@H](Cc1ccccc1)NC(=O)[C@H](Cc1c[nH]cn1)NC(=O)[C@@H](NC(=O)[C@@H](N)CC(C)C)C(C)C)C(=O)N[C@@H](CCCCN)C(=O)N[C@@H](CCCCN)C(=O)O` [compound 87], the “Tumor target cell line” value in data set [3] (setting [12]) is given as 0/1. Further, the “Immunogenicity Tumor” value in data set [3] (setting [8]) is 0/1. In the case of `CC[C@H](C)[C@H](NC(=O)[C@H](C)NC(=O)[C@H](CCSC)NC(=O)[C@H](C)NC(=O)[C@H](CCCNC(=N)N)NC(=O)[C@@H](NC(=O)[C@H](CCCNC(=N)N)NC(=O)[C@@H](NC(=O)CN)[C@@H](C)O)C(C)C)C(=O)N[C@@H](Cc1ccc(O)cc1)C(=O)N[C@@H](CCCCN)C(=O)O` [compound 111], the “pulsed EHM target cell line” value in data set [1] is given as 0/1. As for “MAGE3.189: MAGE3-derived A3 supertype wildtype peptide (Table 16c) (LLGDNQIMPK)”, the “CTL induction / antigenicity reported in the literature (in words)” value in data set [5] is “antigenic”. `CC[C@H](C)[C@H](NC(=O)CNC(=O)[C@H](Cc1ccccc1)NC(=O)[C@@H](NC(=O)[C@@H](N)C(C)C)C(C)C)C(=O)N[C@@H](CC(C)C)C(=O)N[C@H](C(=O)N[C@@H](CCCCN)C(=O)N[C@@H](CCCNC(=N)N)C(=O)O)[C@@H](C)CC` [compound 57]: the “Number of CTL inductions yielding positive responses/total tested, Wildtype-pulsed EHM target cell line” value in data set [1] (positive = 10% specific lysis above background (51Cr release) or twice background and at least 50 pg IFNγ/well in at least one of 48 wells) is 1/3. As for `CC[C@H](C)[C@H](NC(=O)CNC(=O)[C@H](Cc1ccccc1)NC(=O)[C@@H](NC(=O)[C@@H](N)C(C)C)C(C)C)C(=O)N[C@@H](CC(C)C)C(=O)N[C@H](C(=O)N[C@@H](CCCCN)C(=O)N[C@@H](CCCNC(=N)N)C(=O)O)[C@@H](C)CC`, in data set [3] (Table 20), the “Immunogenicity Tumor” value is given as 0/1. As to `CC[C@H](NC(=O)[C@H](CCCNC(=N)N)NC(=O)[C@H](CCCNC(=N)N)NC(=O)[C@@H](NC(=O)[C@@H](N)C(C)C)C(C)C)C(=O)N1CCC[C@H]1C(=O)N[C@@H](Cc1c[nH]cn1)C(=O)N[C@@H](Cc1c[nH]cn1)C(=O)N[C@@H](CCC(=O)O)C(=O)N[C@@H](CCCCN)C(=O)O` [compound 116], in data set [3] (setting [10]), the “Tumor target cell line” value is 1/2. Also, the “Immunogenicity Tumor” value in data set [3] (setting [11]) is 1/2. The “Immunogenicity Wildtype” value in data set [1] (setting [11]) is reported as 1/2. In data set [1], the “pulsed EHM target cell line” value was 1/2.

As for `CC[C@H](C)[C@H](NC(=O)[C@@H](NC(=O)[C@@H](N)[C@@H](C)O)[C@@H](C)O)C(=O)N[C@@H](CC(N)=O)C(=O)N[C@@H](Cc1ccc(O)cc1)C(=O)N[C@H](C(=O)N[C@@H](CC(C)C)C(=O)N[C@@H](Cc1c[nH]c2ccccc12)C(=O)N[C@@H](CCCNC(=N)N)C(=O)O)[C@@H](C)O` [compound 82], in data set [3] (setting [12]), the “Tumor target cell line” value is on record as 2/5. Further, the “pulsed EHM target cell line” value in data set [1] is 7/7. Regarding “p53.172B5K10: p53-derived A3 supertype analog, B at position 5 and K at position 10”, the figures for the “CTL recognition of tumor / endogenous targets (in words)” value in data set [3] and in data set [3] (listed as p53.172.B5KIO) were “transfected tumor target cells; also recorded: p53 transfected tumor targets” and “induce tumor-reactive CTLs”, respectively. For the same molecule, the “CTL recognition of wildtype peptide-pulsed targets (in words)” value in data set [1] is “recognize analog and wildtype peptide-pulsed targets; also recorded: recognize both the wildtype sequence; also recorded: lyse wildtype-peptide coated targets”. As to `CC(C)C[C@H](NC(=O)[C@H](C)NC(=O)[C@@H]1CCCN1C(=O)[C@H](CO)NC(=O)[C@H](Cc1ccc(O)cc1)NC(=O)[C@@H](NC(=O)[C@@H](N)CS)[C@@H](C)O)C(=O)N[C@@H](CC(N)=O)C(=O)N[C@@H](CCCCN)C(=O)O` [compound 107], the “pulsed EHM target cell line” value in data set [1] was 0/1.

For the molecule `C[C@@H](O)[C@H](NC(=O)[C@@H](N)CCCCN)C(=O)N[C@@H](Cc1ccc(O)cc1)C(=O)N[C@@H](CCC(N)=O)C(=O)NCC(=O)N[C@@H](CO)C(=O)N[C@@H](Cc1ccc(O)cc1)C(=O)NCC(=O)N[C@@H](Cc1ccccc1)C(=O)N[C@@H](CCCCN)C(=O)O`, the “Immunogenicity Tumor” value in data set [3] (Table 20) is 0/1. In data set [1] (Table 20), the “Immunogenicity Wildtype” value was 0/1.
